{"source": "paper PMC9606171", "about": "“Synthetic PPAR Agonist DTMB Alleviates Alzheimer’s Disease Pathology by Inhibition of Chronic Microglial Inflammation in 5xFAD Mice” (Neurotherapeutics, 2022)", "key": {"5xFAD mice [1]": {"system": "5xFAD mice", "test": "Western blot and qPCR of APP and β-/γ-secretase in 5xFAD brain", "assay_type": "in vivo", "details": "10 mg/kg orally, 3 months", "protocol": "(§1) DTMB was synthesized from Daejung Chemicals (Korea) and was dissolved in dimethyl sulfoxide (Sigma Aldrich, St. Louis, MO, USA) for cell-based experiments. To evaluate the effects of DTMB on 5xFAD mice, DTMB (10 mg/kg) and vehicle (1% carboxymethylcellulose and 10% DMSO) were orally administrated to four groups (wild-type, wild-type + DTMB, 5xFAD, and 5xFAD + DTMB) with a 6 day per week for 3 months.\nCells were lysed with lysis buffer containing 50 mM Tris (pH 7.4), 140 mM NaCl, 5 mM EDTA, and a protease inhibitor tablet, followed by sonication. Lysate protein concentrations were determined using Bradford reagents (AMERSCO, MA, USA). Proteins were resolved by sodium dodecyl sulfate (SDS) polyacrylamide gel electrophoresis, transferred to nitrocellulose membranes (Pall Corporation, New York, NY, USA), and incubated with blocking buffer (5% nonfat dry milk in TBS and 0.1% Tween 20) for 30 min. […] The integrated blot density was quantified through ImageJ.\nTotal RNA was isolated using TRI Reagent (Molecular Research Center, Cincinnati, OH, USA). […] For detection and quantification, a StepOnePlus Real-Time PCR System (Applied Biosystems, Foster City, CA, USA) was used with FastStart Universal SYBR Green Master (Roche, Basel, Switzerland). Real-time qPCR data were analyzed using the comparative CT method. […]"}, "[2]": {"target": "T1, recombinant human PPARα LBD (Homo sapiens, UniProt Q07869)", "T1 sequence (Q07869 239-466 limits assumed)": "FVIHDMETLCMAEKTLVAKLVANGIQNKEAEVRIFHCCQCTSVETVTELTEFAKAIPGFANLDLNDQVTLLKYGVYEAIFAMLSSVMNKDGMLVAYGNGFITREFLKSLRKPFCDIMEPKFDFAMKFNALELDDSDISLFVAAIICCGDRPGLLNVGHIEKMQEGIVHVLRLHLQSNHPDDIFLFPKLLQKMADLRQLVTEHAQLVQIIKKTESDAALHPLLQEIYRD", "test": "CNBr-bead pull down assay, PPARα LBD", "assay_type": "binding", "details": "drug conjugated CNBr beads", "protocol": "CNBr Sepharose 4B beads were prepared and activated according to the instruction. 100 mg of CNBr activated Sepharose 4B beads were incubated with drugs or DMSO for 18 h at 4 °C. The drug conjugated beads reacted to his-tagged recombinant PPAR α, β/δ, and γ protein. After 24 h of incubation, we confirmed whether recombinant protein binds to the drug conjugated bead through western blotting experiment."}, "5xFAD mice [3]": {"system": "5xFAD mice", "test": "Y-maze test in 5xFAD mice", "assay_type": "in vivo", "details": "10 mg/kg orally, 3 months", "protocol": "as §1\nThe Y-maze test was conducted using a black y-shaped maze apparatus that has three equal-sized arms (40 × 3 × 12 cm) separated at 120° angles. The mice were placed into the same side of the arm at every trial and freely moved for 8 min under the dim light conditions (50 lx). To measure spatial memory, the number of arm entries to other sides was measured. The percentage of spontaneous alternation was calculated using the following formula: 100×(ActualAlteration/(Total#ofarmentrance-2)) . Sample sizes were 20–25 mice per group."}, "5xFAD mice [4]": {"system": "5xFAD mice", "test": "Immunohistochemistry of gliosis (Iba-1, GFAP) in 5xFAD brain", "assay_type": "in vivo", "details": "cortex and hippocampus, versus transgenic controls", "protocol": "as §1\nMice were perfused with ice-cold phosphate-buffered saline (PBS). Brain tissues were separately used for either molecular analysis or immunohistochemistry. The right hemisphere was fixed with 4% PFA and was transferred to a sucrose solution (30%) for 24 h. The right hemisphere was embedded and frozen in optimal cutting temperature compound on dry ice. Coronal Sections (18 μm thick) that included the hippocampus were cut and prepared on slide glasses. Tissue sections were then permeabilized and blocked using a blocking solution (5% goat serum and 0.2% Triton X-100 in PBS) for 1 h at room temperature. Primary antibody incubation was performed overnight at 4 °C using an anti-6e10 antibody (Biolegend, Japan, 1:100), anti-Iba1 antibody (Wako, Japan, 1:200), and anti-GFAP antibody (Abcam, Cambridge, UK, 1:200). […] Slides were counterstained in Hoechst and then mounted in fluorescence mounting medium (Dako, Denmark). […] Fluorescence was measured by calculating % area and was analyzed using ImageJ. […]"}, "[5]": {"test": "Body and tissue weight after 3 months of treatment", "assay_type": "in vivo", "details": "3 months treatment; vehicle- vs DTMB-treated mice", "protocol": "as §1"}, "PPARδ": {"target": "T2, PPARδ (Homo sapiens, UniProt Q03181)", "T2 construct": "pcDNA5-GAL4-PPAR LBD, pG5-luc, and Rluc vector (as control) were transfected into HEK293A cells; expressed in transfected cells; host or cells: HEK293A", "T2 sequence (Q03181 211-439 limits assumed)": "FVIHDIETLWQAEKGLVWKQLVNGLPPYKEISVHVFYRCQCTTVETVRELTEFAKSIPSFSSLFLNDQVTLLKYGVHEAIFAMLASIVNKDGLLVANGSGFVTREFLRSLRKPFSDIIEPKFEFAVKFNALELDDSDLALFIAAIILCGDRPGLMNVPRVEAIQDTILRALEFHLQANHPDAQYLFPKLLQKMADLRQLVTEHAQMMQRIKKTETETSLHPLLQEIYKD", "test": "Gal4-transactivation luciferase assay in HEK293A cells, PPARδ LBD", "assay_type": "cell-based", "protocol": "HEK293A cells were transfected with the GAL4-reporter plasmids and pGL4.74 (Promega, Madison, WI, USA) as an internal standard through electroporation using a Neon Transfection System (Invitrogen, Carlsbad, CA, USA). All vector materials were provided by Professor Yuichiro Kanno at Toho University. Cells were treated with DTMB and each positive control compound for 24 h after overnight incubation. Cells were then harvested and resuspended in luciferase lysis buffer (Promega), followed by incubation on ice for 10 min. Cell debris was removed by centrifugation at 20,000 × g at 4 °C for 10 min, and the supernatants were used for luciferase assay. Using a dual-luciferase reporter assay system (Promega), luciferase activities were measured according to the manufacturer’s instructions. Experimental firefly luciferase activities were normalized against those of Renilla luciferase."}}}
{"compound": "COc1ccc(-c2cc(=O)oc3c(C)c(OC(=O)[C@H](Cc4c[nH]c5ccccc45)NC(=O)OC(C)(C)C)ccc23)cc1", "note": "[DTMB]", "values": [{"measurement": "protein level of β-secretase", "setting": "5xFAD mice [1]; cortex", "result": "slightly decreased"}, {"measurement": "APP protein and mRNA level", "setting": "5xFAD mice [1]; hippocampus", "result": "neither changes"}, {"measurement": "binding to PPAR LBD (pull-down, western blot)", "setting": "[2]; PPARα LBD", "result": "binds"}, {"measurement": "binding to PPARα LBD compared to WY14643 (pull-down)", "setting": "[2]", "result": "stronger binding to PPARα LBD than WY14643"}, {"measurement": "Y-maze alternation", "setting": "5xFAD mice [3]", "result": "improvement with a percentage similar to that of the wild-type mouse group"}, {"measurement": "percentage of areas stained for Iba-1 and GFAP (gliosis of microglia and astrocyte)", "setting": "5xFAD mice [4]", "result": "decreased"}, {"measurement": "body or tissue weight", "setting": "[5]", "result": "no changes"}, {"measurement": "relative luciferase activity", "setting": "PPARδ; HEK293A, 24 h, various concentrations", "result": "increased luciferase activity"}, {"measurement": "transactivation activity (luciferase) compared to positive control", "setting": "PPARδ; versus positive control", "result": "lower than the positive controls"}]}
